{"source": "patent US12162855B2", "about": "“Tetrahydroquinolino derivatives for the treatment of metastatic and chemoresistant cancers” (THE TRUSTEES OF PRINCETON UNIVERSITY, priority 2018, dated 2024)", "key": {"[1]": {"system": "SUM159-M1-p44 cells", "assay": "Lung metastasis xenograft, SUM159-M1-p44 cells by tail-vein injection, BLI", "assay_type": "in vivo, mouse", "conditions": "three doses of 50 mg/kg in combination with 25 mg/kg paclitaxel, days 17, 19 and 21", "protocol": "In another xenograft experiment, mice were injected with SUM159-M1-p44 cells via tail-vein injection, as described above, and randomized following injection. Metastatic burden was imaged on day 16 via intravital imaging. Mice were then treated with paclitaxel (25 mg/kg) and either vehicle or MBE1.5 (50 mg/kg) on days 17, 19 and 21. Lung metastatic burden was then imaged on day 22. Signals were normalized to day 16."}, "[2]": {"system": "MDA-MB-468 cells", "assay": "Primary tumor xenograft, MDA-MB-468 cells in mammary fat pad", "assay_type": "in vivo", "conditions": "12 days", "protocol": "In yet another xenograft experiment, mice were injected with MDA-MB-468 cells via mammary fat pad, and were randomized following injection. Mice were treated with MBE1.5 (25 mg/kg daily, n=6) or vehicle (n=12), and paclitaxel (12.5 mg/kg every other day) for 12 days. Primary tumor measurements were taken by caliper between each treatment group."}, "[3]": {"molecular_target": "T1, ALDH1a3 (Homo sapiens, UniProt P47895)", "T1 construct": "lentiviral vectors containing either the vector backbone or full-length human Aldh1a3; expressed in transfected cells; host or cells: SUM159-M1a (A1) and SUM159 (A7) breast cancer cells, lentiviral pLex vector, puromycin selection", "T1 sequence (P47895 1-512)": "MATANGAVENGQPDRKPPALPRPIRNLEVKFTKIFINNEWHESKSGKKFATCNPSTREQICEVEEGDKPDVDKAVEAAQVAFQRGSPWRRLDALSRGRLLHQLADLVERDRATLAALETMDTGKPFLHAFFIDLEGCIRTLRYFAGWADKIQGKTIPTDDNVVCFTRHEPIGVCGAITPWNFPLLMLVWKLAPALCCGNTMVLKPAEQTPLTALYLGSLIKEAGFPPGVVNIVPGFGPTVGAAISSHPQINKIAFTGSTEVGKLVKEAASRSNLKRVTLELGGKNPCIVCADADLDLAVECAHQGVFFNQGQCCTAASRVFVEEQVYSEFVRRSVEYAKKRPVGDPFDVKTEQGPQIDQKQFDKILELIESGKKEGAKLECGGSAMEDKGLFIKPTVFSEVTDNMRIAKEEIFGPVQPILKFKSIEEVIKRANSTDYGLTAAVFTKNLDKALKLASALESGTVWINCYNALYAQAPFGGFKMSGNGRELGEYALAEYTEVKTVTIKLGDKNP", "assay": "ALDEFLUOR assay in MCF7 cells transduced with human Aldh1a3", "assay_type": "cell-based", "protocol": "The coding sequences of Aldh1a1, Aldh1a2, Aldh1a3 and Aldh3a1 were cloned from cDNA made from pooled human reference RNA samples. Cloned sequences flanked by Age1 and Xho1 restriction sites were inserted into the pLex lentiviral plasmid. Clones were sequenced and compared against NCBI expressed sequence tags (ESTs) for accuracy. Viral production of each enzyme was performed by transfection into the 293T packaging cell line using PEI along with PsPax2 and VSVG packaging vectors. Viruses were collected and filtered at 0.45 μm, then cells were transduced using polybrene (8 μg/mL) for 12 hours, followed by culture with 1 μg/mL puromycin for the duration of experiments. All viral transduction and selection was performed on a cell population-wide basis.\n(§1) Cells were counted, centrifuged and resuspended at 1,000,000 cells/mL in ALDEFLUOR™ buffer (Stemcell Technologies). ALDEFLUOR™ substrate (Stemcell Technologies, 1:200) and test compound or 1 mM DEAB were added to cell suspension and incubated at 37° C. for 45 minutes with vortexing every 15 minutes. Cells were centrifuged and resuspended in ALDEFLUOR™ buffer with DAPI at 5 μg/mL. Samples were analyzed with the BD LSR2 flow cytometry platform. Gating was performed using DEAB as a negative control.\nALDH isoforms 1a1, 1a2, 1a3 and 3a1 were expressed in MCF7 or SUM159 cells, which were subsequently used in an ALDEFLUOR™ assay."}, "[4]": {"molecular_target": "T1, ALDH1a3", "assay": "ALDEFLUOR assay in SUM159-M1a-Aldh1a3 cells (flow cytometry)", "assay_type": "cell-based", "conditions": "for Percent of Cells Positive for ALDEFLUOR at 100 nM / inhibition at 0.1 µM: SUM159-M1a-Aldh1a3 cells, compound at 100 nM; for inhibition at 0.1 µM: read-out: Inhibitory Activity at 100 nM (%); for inhibition of ALDH1a3 activity (FIG. 1A): compounds at 100 nM; for lowest concentration at which inhibitory activity detected ([inh-min], FIG. 1B): threshold at lower bound of two standard deviations of control samples", "protocol": "as §1\nGating for background fluorescence was performed using 1 millimolar DEAB as a negative control.\nThe [inh-min] threshold was set at the lower bound of two standard deviations of control samples, while the IC50 threshold was set at 50% of the average of control samples.\nHigh activity was gated at the 99th percentile of cells at a MBE1.5 concentration of 10 nanomolar. The [inh-min] threshold was set at the lower bound of two standard deviations of control samples.\nAn ALDEFLUOR™ assay was also used to assess the relative activity of several compounds described herein against SUM159-M1a-Aldh1a3 cells. The activity of several compounds in the assay at a concentration of 100 nM is reported in Table 1, along with the chemical structure and compound name associated with each compound."}, "[5]": {"system": "bone marrow cells", "assay": "Ex vivo analysis of ALDH activity in murine lymphocytes (ALDEFLUOR)", "assay_type": "cell-based, mouse", "protocol": "Bone marrow cells were collected from 12-week old […] mice via tibia and femur flush with PBS and were passed through a 100-μm cell sieve. Thymocytes and spleenocytes were isolated from corresponding tissues and were isolated by physical disruption against a 100 μm cell sieve. Cells were washed via centrifugation/resuspension and then suspended at 10^7 cells/mL. The ALDEFLUOR™ assay with or without MBE1 was then conducted on these cells as described except with the addition of either […] (Biolegend #100308), anti-CD11c (BD Pharmigen #561119), anti-CD45 (eBioscience 30-F11), or anti-CD317 (Biolegend 129c1) during the incubation period at 1:200.\nSimilar results (not shown) were obtained in other populations tested, including CD45-positive and CD3e-positive (CD45+CD3e+) and CD11c-positive and CD317-positive (CD11+CD317+)."}}, "note": "Like-named read-outs stand apart in the source and are kept apart here.", "data": [{"smiles": "CCc1ccccc1C(=O)Nc1cc2c(cc1F)NC(=O)CC2", "note": "[MBE1.5, 2-ethyl-N-(7-fluoro-2-oxo-1,2,3,4-tetrahydroquinolin-6-yl)benzamide]", "values": [{"measurement": "lung metastasis by BLI (FIG. 14)", "setting": "[1]", "value": "caused regression of established metastatic disease"}, {"measurement": "complete tumor elimination", "setting": "[2]; 25 mg/kg daily (n=6) with paclitaxel 12.5 mg/kg every other day", "value": "tumors of two mice in the MBE1.5 treatment group were completely eliminated"}, {"measurement": "gross toxicity, body mass (FIG. 15A)", "setting": "[2]; 25 mg/kg daily with paclitaxel 12.5 mg/kg every other day", "value": "no gross toxicity"}, {"measurement": "tumor volume (FIG. 15B)", "setting": "[2]; 25 mg/kg daily with paclitaxel 12.5 mg/kg every other day, MDA-MB-468 primary tumors", "value": "caused regression of primary breast tumors"}, {"measurement": "isoform specificity, percentage of ALDEFLUOR-positive MCF7 cells (FIG. 13B)", "setting": "[3]; MCF7 cells expressing ALDH 1a1, 1a2, 1a3 or 3a1", "value": "specifically inhibits ALDH1a3 at concentrations below 10 μM"}, {"measurement": "Percent of Cells Positive for ALDEFLUOR at 100 nM", "setting": "[4]", "value": 0.03, "unit": "%"}, {"measurement": "inhibition at 0.1 µM", "setting": "[4]", "value": 100, "unit": "%"}, {"measurement": "inhibition of ALDH1a3 activity (FIG. 1A)", "setting": "[4]", "value": "high-affinity compounds for the inhibition of ALDH1a3 activity"}, {"measurement": "IC50", "setting": "[4]; dose titration, IC50 threshold at 50% of average of control samples, read-out: IC50 (percentage of ALDEFLUOR-positive cells, FIG. 1B)", "value": "8 to 10", "unit": "nM"}, {"measurement": "inhibition of highly ALDH1a3-active cells (high ALDH percentage, FIG. 1C)", "setting": "[4]; dose titration, high activity gated at 99th percentile at 10 nanomolar MBE1.5", "value": "more adept at inhibiting highly ALDH1a3-active cells than MBE1"}, {"measurement": "lowest concentration at which inhibitory activity detected ([inh-min], FIG. 1B)", "setting": "[4]", "value": 2, "unit": "nM"}, {"measurement": "effect on ALDEFLUOR activity of CD11c-positive bone marrow cells (FIG. 4B)", "setting": "[5]; murine bone marrow", "value": "not affected"}, {"measurement": "effect on ALDEFLUOR activity of CD45-positive bone marrow cells (FIG. 4A)", "setting": "[5]; murine bone marrow", "value": "not affected"}, {"measurement": "effect on ALDEFLUOR activity of all populations tested (incl. CD45+CD3e+, CD11+CD317+)", "setting": "[5]; murine cells", "value": "not affected"}]}, {"smiles": "CCc1cnccc1C(=O)Nc1cc2c(cc1F)NC(=O)CC2", "note": "[MBE1, 3-ethyl-N-(7-fluoro-2-oxo-1,2,3,4-tetrahydroquinolin-6-yl)isonicotinamide]", "values": [{"measurement": "inhibition of Aldh1a3 activity (FIG. 2A)", "setting": "[3]; MCF7 cells", "value": "effective at inhibiting Aldh1a3 activity"}, {"measurement": "IC50", "setting": "[4]", "value": "8 to 10", "unit": "nM"}, {"measurement": "Percent of Cells Positive for ALDEFLUOR at 100 nM", "setting": "[4]", "value": 0.73, "unit": "%"}, {"measurement": "inhibition at 0.1 µM", "setting": "[4]", "value": 99, "unit": "%"}, {"measurement": "inhibition of ALDH1a3 activity (FIG. 1A)", "setting": "[4]", "value": "high-affinity compounds for the inhibition of ALDH1a3 activity"}, {"measurement": "lowest concentration at which inhibitory activity detected ([inh-min], FIG. 1B)", "setting": "[4]", "value": 2, "unit": "nM"}]}]}
